Measurements taken from patent publication US12077557B2, “Puromycin-based probes and methods of use thereof” (The Regents of the University of California, priority 2018, dated 2024).

Assays:
HeLa cells [1] = assay: Immunostaining and confocal fluorescence imaging of HeLa cells treated with puromycin-based probes; type: cell-based, human; conditions: for change in fluorescence intensity with H2O2 pretreatment: H2O2 50 μM 2 h pretreatment; for change of immunofluorescence intensity with incubation time: basal analyte level; for change in immunofluorescence intensity with cysteine or GSH incubation: 1 μM compound and cysteine or GSH 100 μM, 4 h; for change in fluorescence intensity with paraquat co-incubation: 1 μM compound, paraquat 1 mM; for green immunofluorescence at 0.5 h: basal
A431 cells = assay: Immunostaining and confocal imaging of A431 cells with stimulation or inhibition of H2O2 or NO production; type: cell-based, human; conditions: for change in fluorescence intensity with EGF stimulation: EGF 100 ng/mL 20, 40, 60 min, then 1 μM compound 4 h
From the text: Human cervical epithelial carcinoma (HeLa), human epidermoid carcinoma (A-431) and human breast carcinoma (MDA-MB-231 and MDA-MB-468) were maintained in DMEM medium (high glucose) supplemented with GlutaMAX and 10 vol % FBS. Human breast carcinoma (MCF-7) was maintained in DMEM medium (high glucose) supplemented with GlutaMAX, 10 vol % FBS, 1 vol % non-essential amino acids and 1% sodium pyruvate. Human breast carcinoma (HS 578T) was maintained in DMEM medium (high glucose) supplemented with GlutaMAX, 10 vol % FBS, 1% sodium pyruvate and insulin (10 μg/mL). Human non-tumorigenic breast epithelial cells (MCF-10A) were maintained in DMEM/F12 (with L-glutamate, HEPES and phenol red) supplemented with 5 vol % horse serum, EGF (20 ng/mL), hydrocortisone ([…]), cholera toxin (100 ng/mL), insulin (10 μg/mL) and 1 vol % penicillin/streptomycin. Human normal breast epithelial cells (HS 578Bst) were maintained in ATCC Hybri-Care Medium (No. 46-X) supplemented with sodium bicarbonate ([…]), EGF (30 ng/mL) and 10 vol % FBS. All cells were incubated in 5% CO2 humidified air, and subcultured when 80% confluence was reached. For cell-imaging experiments, the cells were plated on 8-well Lab Tek borosilicate chambered coverglass slides (Nunc) or 24-well plates with 12 mm coverslips, and allowed to grow to ca. 60% confluency before performing the cell imaging experiments.
Cells were incubated with the compound (1 μM) for indicated time intervals. The cells were then washed three-times by PBS solution and fixed by 4% paraformaldehyde at room temperature for 10 min. The cells were washed by PBS solution and PBS solution with 0.1 vol %-Triton X-100, followed by incubation with α-puromycin antibody [3RH11] (Kerafast; 1:500, v/v) in PBS solution containing 10 vol % FBS and 0.1 vol % Triton X-100 at 37° C. for 30 min. Subsequently, the cells were washed by PBS solution and PBS solution with 0.1 vol %-Triton X-100, and stained by α-mouse secondary antibody-Alexa Fluor 488 (1:100, v/v) in PBS solution containing 10 vol % FBS and 0.1 vol % Triton X-100 at 37° C. for 30 min. The cells were then washed by PBS solution and stained by Hoechst 33342 at room temperature for 10 min. After that, the cells were washed three-times by PBS solution and imaged by confocal fluorescence microscopy.
EGF stimulation was carried out by pretreatment of A431 cells by EGF (100 ng/mL) for 20, 40 and 60 min, then washed by PBS and incubated with Peroxymycin-1 (1 μM) for 4 h.
For the study with L-NAME, A431 cells were pretreated with L-NAME (100 μM) for 25 min, then washed by PBS and incubated with EGF (100 ng/mL) for 40 min, followed by washing and incubation with Peroxymycin-1 (1 μM) for 4 h.
For the DPI experiment, the cells were pretreated with a mixture of DPI (5 μM) and EGF (100 ng/mL) for 40 min, followed by incubation with a mixture of DPI (5 μM) and Peroxymycin-1 (1 μM) for 4 h.
For the inhibition of H2O2 production by gp91 Tat peptide, the cells were pretreated with gp91 Tat peptide (100 μM) for 30 min, then incubated with a mixture of gp91 Tat peptide (100 μM) and Peroxymycin-1 (1 μM) for 4 h.
Confocal fluorescence cell imaging was performed with a Zeiss laser scanning microscope 710 with a 40× water-immersion objective lens using Zen 2009 software (Carl Zeiss). Hoechst 33342 was excited with a 405 nm diode laser, and emission was collected using a META detector between 450 and 500 nm. Alexa Fluor 488 was excited with 488 nm with an Ar laser, and emission was collected using a META detector between 500 and 625 nm. Alexa Fluor 647 was excited with a 633 nm HeNe laser, and emission was collected using a META detector between 638 and 647 nm. PBS solution was used as the imaging buffer for all the confocal experiments. Image analysis was performed using ImageJ. A region of interest (ROI) was created around a single cell, and cellular fluorescence intensity was measured. […]

[2] = LC-MS study of reaction of probe with GSH and other substrates; conditions: 25° C.; probe 0.3 mM, GSH 1.0 mM
Procedure: (§1) MilliQ water was used in all experiments unless otherwise stated. Reaction kinetics of the probes with species of interest and other substrates were investigated by LC-MS (Agilent Technology 6130, Quadrupole LC/MS) coupled with photodiode array for detection (X=275 nm). Confocal microscopy images were recorded on a Zeiss laser scanning microscope 710 with a 40× water-immersion objective lens using Zen 2009 software (Carl Zeiss).
(§2) Peroxymycin-1 and Ctrl-Peroxymycin-1 (0.3 mM), respectively, were dissolved in phosphate buffer (20 mM, pH 7.4)-methanol solution mixture (2:1, v/v) with 3 vol % DMSO and allowed to stand at room temperature. At predetermined time intervals, an aliquot of the solution mixture was taken for LC-MS analysis. Separation was achieved by gradient elution from 5-100% MeOH in water (constant 0.1 vol % formic acid) over 8 min, isocratic with 100% MeOH from 8 to 12 min and returned to initial conditions and equilibrated for 3 minutes. The LC chromatograms were recorded by monitoring absorption at 275 nm.

[3] = LC-MS study of reaction of probe with H2S and other substrates; conditions: 25° C.; probe 0.3 mM, H2S 1 mM
Procedure: as §1, §2

HeLa cells [4] = assay: Confocal fluorescence imaging of HeLa cells treated with fluorescent H2O2 probe PF2; type: cell-based, human
From the text: (§3) Human cervical epithelial carcinoma (HeLa), human epidermoid carcinoma (A-431) and human breast carcinoma (MDA-MB-231 and MDA-MB-468) were maintained in DMEM medium (high glucose) supplemented with GlutaMAX and 10 vol % FBS. Human breast carcinoma (MCF-7) was maintained in DMEM medium (high glucose) supplemented with GlutaMAX, 10 vol % FBS, 1 vol % non-essential amino acids and 1% sodium pyruvate. Human breast carcinoma (HS 578T) was maintained in DMEM medium (high glucose) supplemented with GlutaMAX, 10 vol % FBS, 1% sodium pyruvate and insulin (10 μg/mL). Human non-tumorigenic breast epithelial cells (MCF-10A) were maintained in DMEM/F12 (with L-glutamate, HEPES and phenol red) supplemented with 5 vol % horse serum, EGF (20 ng/mL), hydrocortisone (0.5 mg/mL), cholera toxin (100 ng/mL), insulin (10 μg/mL) and 1 vol % penicillin/streptomycin. […]
(§4) Confocal fluorescence cell imaging was performed with a Zeiss laser scanning microscope 710 with a 40× water-immersion objective lens using Zen 2009 software (Carl Zeiss). […] A region of interest (ROI) was created around a single cell, and cellular fluorescence intensity was measured. The reported cellular fluorescence intensity was determined by averaging the measured intensity of 5 different cells from at least 3 different images in triplicate experiments. […]

[5] = LC-MS study of reaction of probe with H2O2 and other ROS; conditions: 25° C.; probe 0.3 mM, H2O2 0.1 mM
Procedure: as §1, §2
For the study of the reaction with H2O2, Peroxymycin-1 and Ctrl-Peroxymycin-1 (0.3 mm), respectively, were dissolved in phosphate buffer (20 mM, pH 7.4)-methanol solution mixture (2:1, v/v) with 3 vol % DMSO. H2O2 was then added to the solution mixture (final concentration=0.1 mM), and the reaction mixture was allowed to stand at room temperature. […]

[6] = Stability of probes in phosphate buffer-methanol mixture by LC-MS; type: physicochemical
Procedure: as §1, §2

[7] = tested on: panel of related cancer and non-tumorigenic breast cell lines; assay: H2O2 profiling across a panel of cancer and non-tumorigenic breast cell lines; type: cell-based, human; conditions: 1 μM, 4 h; MDA-MB-231, HS 578T, MDA-MB-468, MCF-7, MCF-10A, HS 578Bst
From the text: as §3, with “μg/mL).” for “μg/mL). Human non-tumorigenic breast epithelial cells (MCF-10A) were maintained in DMEM/F12 (with L-glutamate, HEPES and phenol red) supplemented with 5 vol % horse serum, EGF (20 ng/mL), hydrocortisone (0.5 mg/mL), cholera toxin (100 ng/mL), insulin (10 μg/mL) and 1 vol % penicillin/streptomycin.”
Cells were incubated with the compound (1 μM) for indicated time intervals. […] After that, the cells were washed three-times by PBS solution and imaged by confocal fluorescence microscopy.
as §4

[8] = H2S 100 μM 30 min, then 1 μM compound 4 h

For `COc1ccc(CC(NC(=O)OCCc2ccc(B3OC(C)(C)C(C)(C)O3)cc2)C(=O)NC2C(CO)OC(n3cnc4c(N(C)C)ncnc43)C2O)cc1` (stereo not shown) [Ctrl-Peroxymycin-1], the “change in fluorescence intensity with H2O2 pretreatment” value (“change … with H2O2 pretreatment” below) (HeLa cells [1]; then 1 μM compound 4 h) was “lack of signal” and the “change in fluorescence intensity with EGF stimulation” value (shortened to “change … with EGF stimulation”) (A431 cells) was “no observable differences in immunofluorescence”.

For `COc1ccc(CC(NC(=O)OCCSSCCOC(C)=O)C(=O)NC2C(CO)OC(n3cnc4c(N(C)C)ncnc43)C2O)cc1` (stereo not shown) [GSH-Puro-1], the “relative fluorescence intensity compared to cells treated by puromycin” value (shortened to “relative fluorescence intensity”) (HeLa cells [1]; 1 μM, 4 h incubation) was 69%, the “relative fluorescence intensity” value (HeLa cells [1]; 1 μM, 6 h incubation) was 79% and the “change of immunofluorescence intensity with incubation time” value (shortened to “change of immunofluorescence intensity”) (HeLa cells [1]; 1 μM, HeLa cells) was “Time-dependent increase in immunofluorescence intensity”. For the same compound, the “fluorescence with BSO pretreatment compared to no pretreatment” value (HeLa cells [1]; BSO 1 mM 3 h, then probe 2 h) was “significantly weaker fluorescence”, the “immunofluorescence with GSH or lipoic acid pretreatment compared to no pretreatment” value (HeLa cells [1]; GSH 100 μM 24 h or lipoic acid 1.8 mM 24 h, then probe 2 h) was “stronger immunofluorescence” and the “pseudo-first-order rate constant of the reaction with GSH” value [2] was 9.4e-05 s⁻¹.

For `COc1ccc(CC(NC(=O)OCc2ccc(N=[N+]=[N-])cc2)C(=O)NC2C(CO)OC(n3cnc4c(N(C)C)ncnc43)C2O)cc1` (stereo not shown) [H2S-Puro-1], the “change in immunofluorescence intensity with cysteine or GSH incubation” value (HeLa cells [1]) was “significant increase in immunofluorescence intensity”, the “relative fluorescence intensity” value (HeLa cells [1]; 1 μM, 4 h incubation) was “around 5%” and the “change of immunofluorescence intensity” value (HeLa cells [1]; 1 μM, HeLa cells) was “time-dependent increase in green fluorescence intensity”. For the same compound, the “immunofluorescence with H2S pretreatment relative to no pretreatment” value (HeLa cells [1]; [8]) was 1.4 fold and the “pseudo-first-order rate constant of the reaction with H2S” value [3] was 6.3e-05 s⁻¹.

With `COc1ccc2c(c1)Oc1cc(B3OC(C)(C)C(C)(C)O3)ccc1C21OC(=O)c2ccccc21` (stereo not shown) [PF2, Peroxyfluor-2] the “cellular fluorescence (basal H2O2)” value (HeLa cells [4]; 10 μM for 0.5, 4 and 6 h, washed) was “negligible fluorescence” and the “change in signal in response to Nox2 inhibition by gp91 Tat peptide” value (HeLa cells [4]; gp91 Tat peptide 100 μM 30 min, PF2 10 μM 4 h) was “failed to show statistically significant decreases in signal”.

In the case of `COc1ccc(CC(NC(=O)OCc2ccc(B3OC(C)(C)C(C)(C)O3)cc2)C(=O)NC2C(CO)OC(n3cnc4c(N(C)C)ncnc43)C2O)cc1` (stereo not shown) [Peroxymycin-1], the “change in fluorescence intensity with paraquat co-incubation” value (HeLa cells [1]) is reported as “significant increases in fluorescence intensity”, the “fluorescence intensity with H2O2 co-incubation relative to cells treated with probe only” value (HeLa cells [1]; 1 μM probe 4 h, H2O2 50 μM co-incubation for 2 h) is reported as 4.3 times and the “relative fluorescence intensity” value (HeLa cells [1]; 1 μM, 4 h incubation) is reported as 30.5%. The “green immunofluorescence at 0.5 h” value (HeLa cells [1]; 1 μM, HeLa cells) was “no significant green fluorescence”, the “change of immunofluorescence intensity” value (HeLa cells [1]; 1 μM, HeLa cells) was “increases in fluorescence intensity” and the “change … with H2O2 pretreatment” value (HeLa cells [1]; then 1 μM compound 4 h) was “statistically significant increase in fluorescence intensity”. The “change … with EGF stimulation” value (A431 cells) was “statistically significant increase in fluorescence intensity”, the “change in immunofluorescent signal with DPI incubation” value (A431 cells; EGF 100 ng/mL 40 min, DPI 5 μM, probe 1 μM 4 h) was “statistically significant decrease in immunofluorescent signal” and the “effect of L-NAME on EGF-stimulated immunofluorescence” value (A431 cells; L-NAME 100 μM 25 min, EGF 100 ng/mL 40 min, probe 1 μM 4 h) was “does not block EGF-stimulated increases”. For the same compound, the “immunofluorescence with gp91 Tat peptide compared to controls without inhibitor” value (A431 cells; gp91 Tat peptide 100 μM 30 min, probe 1 μM 4 h) was “markedly lower levels”, the “pseudo-first-order rate constant of the reaction with H2O2” value [5] was 0.001 s⁻¹ and the “stability in aqueous solution buffered to physiological pH” value ([6]; 0.3 mM probe, phosphate buffer (20 mM, pH 7.4)-methanol (2:1, v/v), 3 vol % DMSO, room temperature) was “good stability”. The “puromycin generation in the absence of H2O2” value ([6]; control experiment, LC-MS) was “negligible puromycin generation” and the “order of fluorescence intensities normalized to puromycin-treated cells” value [7] was “metastatic/invasive cancer cells>cancer cells>non-tumorigenic cells”.

In the case of `COc1ccc(C[C@H](N)C(=O)N[C@H]2[C@@H](O)[C@H](n3cnc4c(N(C)C)ncnc43)O[C@@H]2CO)cc1` [puromycin], the “change in immunofluorescence intensity with cysteine or GSH incubation” value (HeLa cells [1]) is reported as “negligible change in fluorescence intensity”, the “change in fluorescence intensity with paraquat co-incubation” value (HeLa cells [1]) is reported as “no significant changes in fluorescence” and the “time of saturation of green fluorescence” value (HeLa cells [1]; 1 μM, HeLa cells) is reported as 1 h. The “green immunofluorescence at 0.5 h” value (HeLa cells [1]; 1 μM, HeLa cells) was “strong green fluorescence”, the “change … with H2O2 pretreatment” value (HeLa cells [1]; then 1 μM compound 4 h) was “lack of observed changes in fluorescence intensity” and the “change in immunofluorescence intensity by H2S pretreatment” value (HeLa cells [1]; [8]) was “No significant change in immunofluorescence intensity”. The “change in immunofluorescence intensity with GSH, lipoic acid or BSO pretreatment” value (HeLa cells [1]; puromycin control) was “no significant change in immunofluorescence intensity” and the “change … with EGF stimulation” value (A431 cells) was “do not show any significant changes in fluorescence intensity”.
